US20110028566A1, “COMPOSITIONS AND PRODUCTS CONTAINING CYCLOALIPHATIC DIOL ANTIMICROBIAL AGENTS AND METHODS OF USING THE COMPOSITIONS AND PRODUCTS” (EASTMAN CHEMICAL COMPANY, priority 2009, published 2011)

Assays:
Assay in all cases: Microbial challenge testing in BPW
Format in all cases: cell-based
[1] = system: Pseudomonas aeruginosa
Procedure: (§1) The microorganisms used in challenge tests are given in Table 3, designated as either ATCC (American Type Culture Collection) or wild type. These wild type organisms were problematic organisms previously isolated from chemical products. In the description for each organism, the bacteria are indicated as either GN (Gram negative) or GP (Gram positive).
(§2) All of the microorganisms were grown in Tryptose Soy Broth (TSB), DIFCO™ available from Becton, Dickinson and Company, containing 1% dextrose. Aspergillus niger and Candida albicans were incubated at 22° C.±2° C. for at least 96 hours. All bacteria were incubated at 35° C.±2° C. in a humidified incubator for at least 96 hours.
(§3) The following procedure was followed to determine the amount of each challenge material (inoculum broth) required to produce a 10^8 cfu/mL challenge, which is equivalent to a final test-sample microbial concentration of 10^5 to 10^6 cfu (colony-forming units)/mL.
(§4) Using a sterile serological pipette, 1 mL of the growth from each TSB culture was transferred into tubes containing 9 mL phosphate buffer (pH 7.2) and mixed thoroughly. This process was repeated to make serial 1:10 dilutions. Then 0.1 mL of each sample and dilution was inoculated onto agar plates to produce the equivalent of a further 1:10 dilution. C. albicans and A. niger were inoculated onto SDA and bacteria were inoculated onto Plate Count Agar (PCA), DIFCO™ available from Becton, Dickinson and Company. The 0.1 mL aliquots were evenly distributed on the plates using the spread-plate technique. The spread-plate technique is performed by spreading the aliquot over the entire plate surface using a sterile spreading rod while rotating the plate with a rotary auto-plater. After the inoculum was absorbed completely, each plate was inverted and incubated (fungi at 22° C.±2° C. and bacteria at 35° C.±2° C.).
(§5) After incubation for at least 48 hours, colonies that had developed on the agar plates were counted and recorded with the corresponding dilution. If counting had to be delayed temporarily, plates were refrigerated, preferably no more than 24 hours, until they could be counted. The number of cfu/mL was determined by multiplying the count by the dilution factor for that particular plate.
(§6) Turbidity in Nepholemetric Turbidity Units (NTU) was measured for each serial dilution using the HF-Micro 100 Model Turbidimeter. For each microorganism, the plate counts were compared to the turbidity readings.
(§7) Control substrates (“broth alone”) were prepared for each microorganism separately in triplicate by adding 13.5 mL of BPW (pH 7.0) containing 1% (w/v) dextrose to each 20-mL glass tube; then adding 1.5 mL challenge material to produce a final concentration at time zero of 10^5 to 10^6 cfu/mL and a total volume of 15 mL.
(§8) Test sample substrates were prepared containing each test material (1,4-CHDM, etc) or combination of test materials at the concentrations shown in Tables 5 and 6. Sample substrates were prepared in triplicate, except those substrates containing PE or CG which were prepared in duplicate. Substrates were prepared by adding BPW containing 1% (w/v) dextrose to each 20-mL glass tube, then adding the test material in the amount appropriate to achieve the desired weight/volume percent (g/100 mL) and to obtain a total volume of BPW with dextrose and test material of 13.5 mL. Then 1.5 mL challenge material was added to produce a final concentration at time zero of 10^5 to 10^6 cfu/mL of the respective organism and a total test sample substrate volume of 15 mL.
(§9) After mixing, all challenged substrates were incubated at 35° C.±2° C. for 14 days and then at ambient room temperature.

[2] = system: Streptococcus mutans
Procedure: as §1, §2, §3, §4, §5, §6, §7, §8, §9

[3] = system: Aeromonas sp.
Procedure: as §1, §2, §3, §4, §5, §6, §7, §8, §9

[4] = system: Escherichia coli
Procedure: as §1, §2, §3, §4, §5, §6, §7, §8, §9

[5] = system: Staphylococcus epidermidis
Procedure: as §1, §2, §3, §4, §5, §6, §7, §8, §9

[6] = system: Candida albicans
Procedure: as §1, §2
Aspergillus niger and Candida albicans were also grown on Sabouraud dextrose agar (SDA) at 22° C.±2° C. for 7 to 14 days or until full sporulation was achieved.
as §3, §4, §5, §6
On the day of challenge, the Candida albicans inoculum broth was poured through non-absorbent sterile gauze and centrifuged. The […] was then diluted with phosphate buffer (pH 7.2) until the desired turbidity was reached. Using a hemocytometer, a determination was made whether the challenge contained the desired concentration. Dilutions were made through 1.0×10^8 and three SDA spread plates were inoculated with 0.1 mL of each dilution.
as §7
Test sample substrates were prepared containing each test material (1,4-CHDM, etc) or combination of test materials at the concentrations shown in Tables 5 and 6.

Structure (SMILES): OCC1CCCC(CO)C1 (centres unmarked) [1,3-CHDM]
- Grade code P. aeruginosa ([1]; 1.25%, 13 days incubation): 4 (1001 to 10,000 colonies (thus 10,000 cfu/mL to 100,000 cfu/mL))
- Grade code P. aeruginosa ([1]; 1.25%, 30 days incubation): 4 (1001 to 10,000 colonies (thus 10,000 cfu/mL to 100,000 cfu/mL))
- Grade code P. aeruginosa ([1]; 2.5%, 3 days incubation): 4 (1001 to 10,000 colonies (thus 10,000 cfu/mL to 100,000 cfu/mL))
- Grade code P. aeruginosa ([1]; 2.5%, 13 days incubation): 4 (1001 to 10,000 colonies (thus 10,000 cfu/mL to 100,000 cfu/mL))
- Grade code P. aeruginosa ([1]; 2.5%, 30 days incubation): 4 (1001 to 10,000 colonies (thus 10,000 cfu/mL to 100,000 cfu/mL))
- Grade code S. mutans ([2]; 0.5%, 3 days incubation): 5 (More than 10,000 colonies estimated (thus >100,000 cfu/mL))
- Grade code S. mutans ([2]; 0.5%, 13 days incubation): 4 (1001 to 10,000 colonies (thus 10,000 cfu/mL to 100,000 cfu/mL))
- Grade code S. mutans ([2]; 0.5%, 30 days incubation): 4 (1001 to 10,000 colonies (thus 10,000 cfu/mL to 100,000 cfu/mL))
- Grade code S. mutans ([2]; 1.25%, 3 days incubation): 4 (1001 to 10,000 colonies (thus 10,000 cfu/mL to 100,000 cfu/mL))
- Grade code S. mutans ([2]; 1.25%, 13 days incubation): 4 (1001 to 10,000 colonies (thus 10,000 cfu/mL to 100,000 cfu/mL))
- Grade code S. mutans ([2]; 1.25%, 30 days incubation): 4 (1001 to 10,000 colonies (thus 10,000 cfu/mL to 100,000 cfu/mL))
- Grade code S. mutans ([2]; 2.5%, 3 days incubation): 4 (1001 to 10,000 colonies (thus 10,000 cfu/mL to 100,000 cfu/mL))
- Grade code S. mutans ([2]; 2.5%, 13 days incubation): 4 (1001 to 10,000 colonies (thus 10,000 cfu/mL to 100,000 cfu/mL))
- Grade code S. mutans ([2]; 2.5%, 30 days incubation): 4 (1001 to 10,000 colonies (thus 10,000 cfu/mL to 100,000 cfu/mL))
- Grade code Aeromonas sp ([3]; 0.5%, 3 days incubation): 5 (More than 10,000 colonies estimated (thus >100,000 cfu/mL))
- Grade code Aeromonas sp ([3]; 0.5%, 14 days incubation): 4 (1001 to 10,000 colonies (thus 10,000 cfu/mL to 100,000 cfu/mL))
- Grade code Aeromonas sp ([3]; 0.5%, 30 days incubation): 4 (1001 to 10,000 colonies (thus 10,000 cfu/mL to 100,000 cfu/mL))
- Grade code Aeromonas sp ([3]; 1.25%, 3 days incubation): 4 (1001 to 10,000 colonies (thus 10,000 cfu/mL to 100,000 cfu/mL))
- Grade code Aeromonas sp ([3]; 1.25%, 14 days incubation): 4 (1001 to 10,000 colonies (thus 10,000 cfu/mL to 100,000 cfu/mL))
- Grade code Aeromonas sp ([3]; 1.25%, 30 days incubation): 4 (1001 to 10,000 colonies (thus 10,000 cfu/mL to 100,000 cfu/mL))
- Grade code E. coli ([4]; 0.5%, 3 days incubation): 5 (More than 10,000 colonies estimated (thus >100,000 cfu/mL))
- Grade code E. coli ([4]; 0.5%, 14 days incubation): 5 (More than 10,000 colonies estimated (thus >100,000 cfu/mL))
- Grade code E. coli ([4]; 0.5%, 30 days incubation): 5 (More than 10,000 colonies estimated (thus >100,000 cfu/mL))
- Grade code E. coli ([4]; 1.25%, 3 days incubation): 5 (More than 10,000 colonies estimated (thus >100,000 cfu/mL))
- Grade code E. coli ([4]; 1.25%, 14 days incubation): 4 (1001 to 10,000 colonies (thus 10,000 cfu/mL to 100,000 cfu/mL))
- Grade code E. coli ([4]; 1.25%, 30 days incubation): 4 (1001 to 10,000 colonies (thus 10,000 cfu/mL to 100,000 cfu/mL))
- Grade code E. coli ([4]; 2.5%, 3 days incubation): 5 (More than 10,000 colonies estimated (thus >100,000 cfu/mL))
- Grade code E. coli ([4]; 2.5%, 14 days incubation): 4 (1001 to 10,000 colonies (thus 10,000 cfu/mL to 100,000 cfu/mL))
- Grade code E. coli ([4]; 2.5%, 30 days incubation): 4 (1001 to 10,000 colonies (thus 10,000 cfu/mL to 100,000 cfu/mL))
- Grade code S. epidermidis ([5]; 0.5%, 3 days incubation): 4 (1001 to 10,000 colonies (thus 10,000 cfu/mL to 100,000 cfu/mL))
- Grade code S. epidermidis ([5]; 0.5%, 13 days incubation): 4 (1001 to 10,000 colonies (thus 10,000 cfu/mL to 100,000 cfu/mL))
- Grade code S. epidermidis ([5]; 0.5%, 30 days incubation): 4 (1001 to 10,000 colonies (thus 10,000 cfu/mL to 100,000 cfu/mL))
- Grade code S. epidermidis ([5]; 1.25%, 3 days incubation): 4 (1001 to 10,000 colonies (thus 10,000 cfu/mL to 100,000 cfu/mL))
- Grade code S. epidermidis ([5]; 1.25%, 13 days incubation): 3.7
- Grade code S. epidermidis ([5]; 1.25%, 30 days incubation): 4 (1001 to 10,000 colonies (thus 10,000 cfu/mL to 100,000 cfu/mL))
- Grade code S. epidermidis ([5]; 2.5%, 3 days incubation): 4 (1001 to 10,000 colonies (thus 10,000 cfu/mL to 100,000 cfu/mL))
- Grade code S. epidermidis ([5]; 2.5%, 13 days incubation): 3 (101 to 1000 colonies (thus 1000 to 10,000 cfu/mL))
- Grade code S. epidermidis ([5]; 2.5%, 30 days incubation): 4 (1001 to 10,000 colonies (thus 10,000 cfu/mL to 100,000 cfu/mL))
- Grade code C. albicans ([6]; 0.5%, 3 days incubation): 4 (1001 to 10,000 colonies (thus 10,000 cfu/mL to 100,000 cfu/mL))
- Grade code C. albicans ([6]; 0.5%, 14 days incubation): 4 (1001 to 10,000 colonies (thus 10,000 cfu/mL to 100,000 cfu/mL))
- Grade code C. albicans ([6]; 0.5%, 30 days incubation): 4 (1001 to 10,000 colonies (thus 10,000 cfu/mL to 100,000 cfu/mL))
- Grade code C. albicans ([6]; 1.25%, 3 days incubation): 4 (1001 to 10,000 colonies (thus 10,000 cfu/mL to 100,000 cfu/mL))
- Grade code C. albicans ([6]; 1.25%, 14 days incubation): 4 (1001 to 10,000 colonies (thus 10,000 cfu/mL to 100,000 cfu/mL))
- Grade code C. albicans ([6]; 1.25%, 30 days incubation): 4 (1001 to 10,000 colonies (thus 10,000 cfu/mL to 100,000 cfu/mL))
- Grade code C. albicans ([6]; 2.5%, 3 days incubation): 4 (1001 to 10,000 colonies (thus 10,000 cfu/mL to 100,000 cfu/mL))
- Grade code C. albicans ([6]; 2.5%, 14 days incubation): 4 (1001 to 10,000 colonies (thus 10,000 cfu/mL to 100,000 cfu/mL))
- Grade code C. albicans ([6]; 2.5%, 30 days incubation): 4 (1001 to 10,000 colonies (thus 10,000 cfu/mL to 100,000 cfu/mL))
